In patent US9149038B2, “4-amino-6-(heterocyclic)picolinates and 6-amino-2-(heterocyclic)pyrimidine-4-carboxylates and their use as herbicides” (Dow AgroSciences LLC, priority 2013, dated 2015) one finds pest or weed control data, which are given here for 3 compounds.

The structures appear in SMILES notation. Read-outs that look alike come from different tables or passages of the source.

The subject of assay [1] is Key Grass and Sedge Weeds as well as Grass Crops. Put plainly: Post-Emergent Test II: postemergent herbicidal activity, visual rating after 14 d (Table 8). The class given is in vivo. The following applies: post-emergence, 336 h; for pest or weed control at 140 g/ha: 140 g ai/ha; for pest or weed control at 35 g/ha: 35 g ai/ha; for pest or weed control at 70 g/ha: 70 g ai/ha. An excerpt: (§1) Herbicidal evaluations were made visually on a scale of 0 to 100 where 0 represents no activity and 100 represents complete plant death.
(§2) Seeds or nutlets of the desired test plant species were planted in Sun Gro Metro-Mix® 360 planting mixture, which typically has a pH of 6.0 to 6.8 and an organic matter content of about 30 percent, in plastic pots with a surface area of 64 square centimeters (cm^2). When required to ensure good germination and healthy plants, a fungicide treatment and/or other chemical or physical treatment was applied. The plants were grown for 7-21 d in a greenhouse with an approximate 15 h photoperiod which was maintained at about 23-29° C. during the day and 22-28° C. during the night. Nutrients and water were added on a regular basis and supplemental lighting was provided with overhead metal halide 1000-Watt lamps as necessary. The plants were employed for testing when they reached the first or second true leaf stage.
(§3) A weighed amount, determined by the highest rate to be tested, of each test compound was placed in a 25 mL glass vial and was dissolved in 4 mL of a 97:3 v/v mixture of acetone and DMSO to obtain concentrated stock solutions. […] The concentrated stock solutions obtained were diluted with 20 mL of an aqueous mixture containing acetone, water, isopropyl alcohol, DMSO, Atplus 411F crop oil concentrate, and Triton® X-155 surfactant in a 48.5:39:10:1.5:1.0:0.02 v/v ratio to obtain spray solutions containing the highest application rates. Additional application rates were obtained by serial dilution of 12 mL of the high rate solution into a solution containing 2 mL of a 97:3 v/v mixture of acetone and DMSO and 10 mL of an aqueous mixture containing acetone, water, isopropyl alcohol, DMSO, Atplus 411F crop oil concentrate, and Triton X-155 surfactant in a 48.5:39:10:1.5:1.0:0.02 v/v ratio to obtain ½×, ¼×, ⅛× and 1/16× rates of the high rate. Compound requirements are based upon a 12 mL application volume at a rate of 187 liters per hectare (L/ha). Formulated compounds were applied to the plant material with an overhead Mandel track sprayer equipped with 8002E nozzles calibrated to deliver 187 L/ha over an application area of 0.503 square meters at a spray height of 18 inches (43 cm) above the average plant canopy height. Control plants were sprayed in the same manner with the solvent blank.
(§4) The treated plants and control plants were placed in a greenhouse as described above and watered by subirrigation to prevent wash-off of the test compounds. After 14 d, the condition of the test plants as compared with that of the untreated plants was determined visually and scored on a scale of 0 to 100 percent where 0 corresponds to no injury and 100 corresponds to complete kill and are presented as indicated in Table 4.

Assay [2] has as its system Key Broadleaf Weed and Crop Species. Put plainly: Post-Emergent Test II: postemergent herbicidal activity, visual rating after 14 d (Table 7). It is filed as in vivo. The following applies: post-emergence, 336 h; for pest or weed control at 140 g/ha: 140 g ai/ha; for pest or weed control at 35 g/ha: 35 g ai/ha; for pest or weed control at 70 g/ha: 70 g ai/ha.
From the text: as §1, §2, §3, §4

The mark [3] stands for this setting: barnyardgrass (Echinochloa crus-galli), read-out: Visual Growth Reduction (%) 14 Days After Application, ECHCG.
The mark [4] stands for this setting: giant foxtail (Setaria faberi), read-out: Visual Growth Reduction (%) 14 Days After Application, SETFA.
Where [5] appears, read: maize, corn (Zea mays), read-out: Visual Growth Reduction (%) 14 Days After Application, ZEAMX.
Where [6] appears, read: rice (Oryza sativa), read-out: Visual Growth Reduction (%) 14 Days After Application, ORYSA.
The mark [7] stands for this setting: wheat, spring (Triticum aestivum), read-out: Visual Growth Reduction (%) 14 Days After Application, TRZAS.
The mark [8] stands for this setting: yellow nutsedge (Cyperus esculentus), read-out: Visual Growth Reduction (%) 14 Days After Application, CYPES.
[9] abbreviates: ABUTH: velvetleaf (Abutilon theophrasti), read-out: Visual Growth Reduction (%) 14 Days After Application ABUTH.
Setting [10] is: AMARE: redroot pigweed (Amaranthus retroflexus), read-out: Visual Growth Reduction (%) 14 Days After Application AMARE.
The mark [11] stands for this setting: BRSNN: oilseed rape, canola (Brassica napus), read-out: Visual Growth Reduction (%) 14 Days After Application BRSNN.
Where [12] appears, read: CHEAL: lambsquarters (Chenopodium album), read-out: Visual Growth Reduction (%) 14 Days After Application CHEAL.
Setting [13] is: EPHHL: wild poinsettia (Euphorbia heterophylla), read-out: Visual Growth Reduction (%) 14 Days After Application EPHHL.
The mark [14] stands for this setting: HELAN: sunflower (Helianthus annuus), read-out: Visual Growth Reduction (%) 14 Days After Application HELAN.
[15] abbreviates: giant foxtail (Setaria faberi), read-out: Visual Growth Reduction (%) 14 Days After Application SETFA.
The mark [16] stands for this setting: maize, corn (Zea mays), read-out: Visual Growth Reduction (%) 14 Days After Application ZEAMX.
Where [17] appears, read: rice (Oryza sativa), read-out: Visual Growth Reduction (%) 14 Days After Application ORYSA.
Setting [18] is: wheat, spring (Triticum aestivum), read-out: Visual Growth Reduction (%) 14 Days After Application TRZAS.
The mark [19] stands for this setting: yellow nutsedge (Cyperus esculentus), read-out: Visual Growth Reduction (%) 14 Days After Application CYPES.
The mark [20] stands for this setting: lambsquarters (Chenopodium album), read-out: Visual Growth Reduction (%) 14 Days After Application CHEAL.
Where [21] appears, read: oilseed rape, canola (Brassica napus), read-out: Visual Growth Reduction (%) 14 Days After Application BRSNN.
Where [22] appears, read: redroot pigweed (Amaranthus retroflexus), read-out: Visual Growth Reduction (%) 14 Days After Application AMARE.
[23] abbreviates: sunflower (Helianthus annuus), read-out: Visual Growth Reduction (%) 14 Days After Application HELAN.
[24] abbreviates: velvetleaf (Abutilon theophrasti), read-out: Visual Growth Reduction (%) 14 Days After Application ABUTH.
Where [25] appears, read: wild poinsettia (Euphorbia heterophylla), read-out: Visual Growth Reduction (%) 14 Days After Application EPHHL.

Consider `COC(=O)c1nc(-c2ccc3c(c2)CCN3C)c(F)c(N)c1Cl` [Compound 107], for which the pest or weed control at 140 g/ha in assay [1] (setting [3]), in assay [1] (setting [4]), in assay [1] (setting [5]), in assay [1] (setting [6]), in assay [1] (setting [7]) and in assay [1] (setting [8]) was 0 to 29% in each case. Also, the pest or weed control at 140 g/ha in assay [2] (setting [9]) fell in the range of 60 to 74%; in assay [2] (setting [10]), 0 to 29%; in assay [2] (setting [11]), 0 to 29%; in assay [2] (setting [12]), 85 to 94%; in assay [2] (setting [13]), 95 to 100%; in assay [2] (setting [14]), 0 to 29%.

For `CN1CCc2cc(-c3nc(C(=O)O)c(Cl)c(N)c3F)ccc21` [Compound 108], the pest or weed control at 140 g/ha in assay [1] (setting [3]) lay within 75 to 84%; in assay [1] (setting [4]), 0 to 29%; in assay [1] (setting [5]), 0 to 29%; in assay [1] (setting [6]), 0 to 29%; in assay [1] (setting [7]) it was 0 to 29%; in assay [1] (setting [8]), 0 to 29%. Also, the pest or weed control at 140 g/ha in assay [2] (setting [9]) was 0 to 29%; in assay [2] (setting [10]), 0 to 29%; in assay [2] (setting [11]), 0 to 29%; in assay [2] (setting [12]) it was 60 to 74%; in assay [2] (setting [13]) it was 0 to 29%; in assay [2] (setting [14]) it was 60 to 74%.

For the compound `Nc1cc(-c2ccc3c(c2Cl)OC(F)(F)O3)nc(C(=O)O)c1Cl` [Compound 34], the pest or weed control at 35 g/ha in assay [1] (setting [15]) lay within 75 to 84%; in assay [1] (setting [16]), 60 to 74%; in assay [1] (setting [17]) it was 0 to 29%; in assay [1] (setting [18]), 45 to 59%; in assay [1] (setting [19]) it was 0 to 29%; in assay [2] (setting [20]), 75 to 84%. In addition, the pest or weed control at 35 g/ha in assay [2] (setting [21]) was 75 to 84%; in assay [2] (setting [22]) it was 85 to 94%; in assay [2] (setting [23]), 75 to 84%; in assay [2] (setting [24]) it was 45 to 59%; in assay [2] (setting [25]) it was 45 to 59%. In addition, the pest or weed control at 70 g/ha in assay [1] (setting [15]) lay in the range of 75 to 84%; in assay [1] (setting [16]) it was 60 to 74%; in assay [1] (setting [17]) it was 0 to 29%; in assay [1] (setting [18]), 60 to 74%; in assay [1] (setting [19]), 0 to 29%; in assay [2] (setting [20]), 75 to 84%. Also, the pest or weed control at 70 g/ha in assay [2] (setting [21]) was 75 to 84%; in assay [2] (setting [22]), 95 to 100%; in assay [2] (setting [23]) it was 85 to 94%; in assay [2] (setting [24]), 60 to 74%; in assay [2] (setting [25]), 60 to 74%. In addition, the pest or weed control at 140 g/ha in assay [1] (setting [15]) was 75 to 84%; in assay [1] (setting [16]), 60 to 74%; in assay [1] (setting [17]), 0 to 29%; in assay [1] (setting [18]) it was 60 to 74%; in assay [1] (setting [19]), 0 to 29%; in assay [2] (setting [20]) it was 75 to 84%. In addition, the pest or weed control at 140 g/ha in assay [2] (setting [21]) was 85 to 94%; in assay [2] (setting [22]), 95 to 100%; in assay [2] (setting [23]) it was 85 to 94%; in assay [2] (setting [24]), 75 to 84%; in assay [2] (setting [25]) it was 60 to 74%.
